Results taken from patent US8993606B2, “Oral formulations for treating metal overload” (FerroKin BioSciences, Inc., priority 2011, dated 2015).
Where two headings read alike, the source gives them in different places.

Legend:
healthy adult subjects = test: Safety: bioavailability study oral capsules versus oral solution in healthy subjects; format: in vivo
Procedure: This study was a study in healthy adult subjects designed to compare the bioavailability of Compound 1 when administered as an oral capsule or solution. 24 subjects were enrolled and 22 completed the study: Subjects received a single oral dose of 16 mg/kg of Compound 1 as an oral capsule or as a solution. […] Treatment-emergent AEs were reported for 14 of the 24 subjects receiving Compound 1 (58%). […] TEAEs included headache (3 subjects), fever (2 subjects), nausea (2 subjects), lethargy (2 subjects), and loss of appetite (1 subject).

[1] = Example 6: multiple-dose study in iron-overloaded human subjects (PK); format: in vivo; conditions: for half-life / Tmax / CL renal / Cmax / AUC(0-t) / Vd/F: both sexes, human, plasma; for AUC(0-t): read-out: AUC(0 - 24); for Vd/F: read-out: Vz/F
Text: Example 6 was a multiple-dose, escalating study in iron-overloaded subjects conducted at 5 centers in the US, Australia, and Thailand.
Men and women at least 18 years of age qualified to participate if they were able to voluntarily give consent and had transfusional overload requiring treatment with an iron chelator and were willing to discontinue their chelation for a period of at least 5 days prior to screening and during the study for a total of up to 35 days. […] The mean of each subject's last 3 pre-transfusion hemoglobin levels (prior to screening) was ≧7.5 g/dL and their serum ferritin was >400 ng/mL. Subjects also agreed to use an approved method of contraception during the study.
The study enrolled 20 subjects with the following primary diagnoses requiring chronic transfusions:
• 2 β-thalassemia major • 2 sickle cell anemia Cohort 2 (8 mg/kg): • 1α-thalassemia major (α°/α°) • 2 β-thalassemia major • 1 congenital dyserythropoietic anemia Cohort 3 (16 mg/kg): • 4 β-thalassemia major Cohort 4 (32 mg/kg): • 1 α-thalassemia major)(α°/α° • 2 β-thalassemia/hemoglobin E • 1 sickle cell anemia Cohort 5 (40 mg/kg): • 2 β-thalassemia major • 2 β-thalassemia/hemoglobin E

[2] = test system: pediatric subjects (aged 6-18 years) with documented transfusional iron overload; test: Safety: pediatric Phase 2 study; format: in vivo, human
Text: A pediatric study is an ongoing Phase 2 multicenter, randomized, open-label study of pediatric subjects (aged 6-18 years) with documented transfusional iron overload in need of chelation therapy. 6 subjects (aged 12-<18 years) of a planned 30 subjects had been enrolled and administered investigational product. These subjects received a single dose for pharmacokinetic analysis with the option to continue in the 48-week study. […] Dosing was temporarily discontinued for 2 subjects; 1 subject for moderate decrease in neutrophil count, which was considered possibly related, and 1 for a mild upper respiratory tract infection that was considered not related. Treatment-emergent AEs were reported for 5 of the 6 subjects. Treatment emergent AEs considered possibly related to the investigational product include arthralgia (1), decreased neutrophil count (1), neutropenia (1), and headache (1).

iron-overloaded subjects = test: Safety: multiple-dose study in iron-overloaded subjects; format: in vivo, human
Procedure: Twenty iron-overloaded subjects were enrolled and completed the study. Four subjects in each cohort were orally administered 3, 8, 16, or 32 or 40 mg/kg/day of Compound 1 for 7 consecutive days.

[3] = 3 mg/kg/day, 7 days oral, N = 4
[4] = 8 mg/kg/day, 7 days oral, N = 4
[5] = 16 mg/kg/day, 7 days oral, N = 4
[6] = 32 mg/kg/day, 7 days oral, N = 2
[7] = 32 mg/kg/day, 7 days oral, N = 4
[8] = 40 mg/kg/day, 7 days oral, N = 4

Q: Which results are given for COCCOCCOCCOc1cccc(C2=N[C@@](C)(C(=O)O)CS2)c1O [Compound 1, (S)-4,5-Dihydro-2-[2-hydroxy-3-(3,6,9-trioxadecyloxy)phenyl]-4-methyl-4-thiazolecarboxylate magnesium hydroxide]?
A: subjects with treatment-emergent AEs (healthy adult subjects; 14 of the 24 subjects): 58%; TEAE fever (healthy adult subjects; 24 subjects): 2 subjects; TEAE headache (healthy adult subjects; 24 subjects): 3 subjects; TEAE lethargy (healthy adult subjects; 24 subjects): 2 subjects; TEAE loss of appetite (healthy adult subjects; 24 subjects): 1 subject; TEAE nausea (healthy adult subjects; 24 subjects): 2 subjects; deaths, SAEs, withdrawals as the result of an AE (healthy adult subjects; single oral dose 16 mg/kg): no deaths, no SAEs, and no withdrawals as the result of an AE; intensity of all AEs (healthy adult subjects; single oral dose 16 mg/kg): mild or moderate intensity; tolerability (healthy adult subjects; single oral dose 16 mg/kg, capsule or solution): well tolerated; CL/F [1, 3]: 162 ± 85.0 mL/min; Fe(0-24) [1, 3]: 44.0 ± 16.0 % oral dose; Ue(0-24) [1, 3]: 66.1 ± 24.0 mg; λz [1, 3]: 0.0655 ± 0.0606 h⁻¹; CL/F [1, 4]: 225 ± 142 mL/min; Fe(0-24) [1, 4]: 47.2 ± 13.8 % oral dose; Ue(0-24) [1, 4]: 201 ± 68.1 mg; λz [1, 4]: 0.0424 ± 0.0249 h⁻¹; CL/F [1, 5]: 206 ± 78.4 mL/min; Fe(0-24) [1, 5]: 39.2 ± 5.86 % oral dose; Ue(0-24) [1, 5]: 402 ± 103 mg; λz [1, 5]: 0.0421 ± 0.0246 h⁻¹; λz [1, 6]: 0.0381 ± 0.0091^a hr^−1; CL/F [1, 7]: 172 ± 60.1 mL/min; Fe(0-24) [1, 7]: 43.1 ± 15.8 % oral dose; Ue(0-24) [1, 7]: 641 ± 208 mg; CL/F [1, 8]: 223 ± 23.6 mL/min; Fe(0-24) [1, 8]: 48.4 ± 14.0 % oral dose; Ue(0-24) [1, 8]: 905 ± 247 mg; λz [1, 8]: 0.0544 ± 0.0071 h⁻¹; time of maximum plasma concentrations, mean ([1]; after 7 days of daily dosing): 1.24 h; time of maximum plasma concentrations, range ([1]; after 7 days of daily dosing, 3-40 mg/kg/day): 1.0 to 1.49 h; half-life ([1]; oral, across 5 cohorts, read-out: mean t1/2, range): 12.9 to 21.3 h; Tmax ([1]; oral, across 5 cohorts, read-out: median values for tmax, range): 1 to 1.49 h; CL renal [1, 3]: 75.2 ± 46.8 mL/min; Cmax [1, 3]: 5910 ± 2300 ng/mL; AUC(0-t) [1, 3]: 19500 ± 11300 ng·h/mL; half-life ([1]; 3 mg/kg/day, 7 days oral, N = 4, read-out: T1/2 (converted)): 16.2 ± 8.32 h; Vd/F [1, 3]: 185 ± 84.1 L; Tmax ([1]; 3 mg/kg/day, 7 days oral, median, read-out: tmax): 1.31 h; CL renal [1, 4]: 105 ± 62.9 mL/min; Cmax [1, 4]: 15000 ± 4440 ng/mL; AUC(0-t) [1, 4]: 44900 ± 30800 ng·h/mL; half-life ([1]; 8 mg/kg/day, 7 days oral, N = 4, read-out: T1/2 (converted)): 20.9 ± 11.3 h; Vd/F [1, 4]: 311 ± 137 L; Tmax ([1]; 8 mg/kg/day, 7 days oral, median, read-out: tmax): 1.18 h; CL renal [1, 5]: 83.2 ± 3600 mL/min; Cmax [1, 5]: 38200 ± 3950 ng/mL; AUC(0-t) [1, 5]: 92300 ± 36600 ng·h/mL; half-life ([1]; 16 mg/kg/day, 7 days oral, N = 4, read-out: T1/2 (converted)): 21.3 ± 11.8 h; Vd/F [1, 5]: 339 ± 166 L; Tmax ([1]; 16 mg/kg/day, 7 days oral, median, read-out: tmax): 1 h; half-life ([1]; 32 mg/kg/day, 7 days oral, N = 2, read-out: T1/2 (converted)): 18.7 h; Vd/F [1, 6]: 214 L; CL renal [1, 7]: 73.6 ± 37.8 mL/min; Cmax [1, 7]: 68200 ± 27500 ng/mL; AUC(0-t) [1, 7]: 158000 ± 43500 ng·h/mL; Tmax ([1]; 32 mg/kg/day, 7 days oral, median, read-out: tmax): 1.49 h; CL renal [1, 8]: 107 ± 26.2 mL/min; Cmax [1, 8]: 68600 ± 11000 ng/mL; AUC(0-t) [1, 8]: 141000 ± 8070 ng·h/mL; half-life ([1]; 40 mg/kg/day, 7 days oral, N = 4, read-out: T1/2 (converted)): 12.9 ± 1.68 h; Vd/F [1, 8]: 249 ± 40.4 L; Tmax ([1]; 40 mg/kg/day, 7 days oral, median, read-out: tmax): 1.26 h; possibly related TEAE arthralgia ([2]; 6 subjects): 1; possibly related TEAE decreased neutrophil count ([2]; 6 subjects): 1; possibly related TEAE headache ([2]; 6 subjects): 1; possibly related TEAE neutropenia ([2]; 6 subjects): 1; SAEs ([2]; 6 subjects aged 12-<18 years): No SAEs have been reported; subjects with treatment-emergent AEs ([2]; 6 subjects aged 12-<18 years): 5 of the 6; TEAE QT prolonged (iron-overloaded subjects; 1 subject): 5%; TEAE abdominal pain upper (iron-overloaded subjects; 1 subject): 5%; TEAE blood urine present (iron-overloaded subjects; 1 subject): 5%; TEAE chromaturia (iron-overloaded subjects; 1 subject): 5%; TEAE dizziness (iron-overloaded subjects; 1 subject): 5%; TEAE feeling hot (iron-overloaded subjects; 1 subject): 5%; TEAE pruritus (iron-overloaded subjects; 1 subject): 5%; TEAE tachycardia (iron-overloaded subjects; 1 subject): 5%; TEAE flatulence (iron-overloaded subjects; 2 subjects): 10%; tolerability (iron-overloaded subjects; 3, 8, 16, 32 or 40 mg/kg/day for 7 consecutive days): generally well tolerated; TEAE headache (iron-overloaded subjects; 5 subjects): 25%; TEAE urine color abnormal (iron-overloaded subjects; 8 subjects, related to study drug): 40%; subjects with at least 1 TEAE (iron-overloaded subjects; 20 subjects, majority mild and unrelated to study drug): 90%; QTcB interval prolongation (iron-overloaded subjects; one subject, Day 7 of treatment, not observed with QTcF): 20 ms; SAE recorded (iron-overloaded subjects; subject at 3 mg/kg/day, sickle cell crisis, not related to treatment): 1 SAE
